Measurements as given in ChEMBL document CHEMBL1201862, “PubChem BioAssay data set” (2004).
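96-well plates; 48 h exposure; 5 concentrations. Endpoints by linear interpolation between flanking doses. Not reached: highest tested concentration assigned. At the GI50, growth is halved.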 Activity calls are given as the source filed them. Cut-off read from the data, not from the text of the source: active = GI50 up to about 1.1 µM and inactive = higher.

Legend:
Test in all cases: growth of human tumour cells (NCI), 48 h
A549 = test system: A549
CCRF-CEM = test system: CCRF-CEM
DU-145 = test system: DU-145
EKVX = test system: EKVX
HCC 2998 = test system: HCC 2998
IGROV-1 = test system: IGROV-1
LOX IMVI = test system: LOX IMVI
MDA-N = test system: MDA-N
OVCAR-4 = test system: OVCAR-4
RPMI-8226 = test system: RPMI-8226
SF-268 = test system: SF-268
SK-MEL-28 = test system: SK-MEL-28
SK-OV-3 = test system: SK-OV-3
SN12C = test system: SN12C
SW-620 = test system: SW-620
U-251 = test system: U-251
UO-31 = test system: UO-31
SF-539 = test system: SF-539
HL-60 = test system: HL-60

Measured: GI50

COc1ccc2c3c1OC1C(=O)C=CC4(CC2)N(C)CCC314 (stereo not given)
inactive: A549 22.8 µM | CCRF-CEM 12.7 µM | DU-145 14.3 µM | EKVX 19.6 µM | HCC 2998 13.8 µM | IGROV-1 23.7 µM | LOX IMVI 11.4 µM | MDA-N 15.8 µM | OVCAR-4 24 µM | RPMI-8226 17 µM | SF-268 19.3 µM | SK-MEL-28 22.2 µM | SK-OV-3 36.4 µM | SN12C 21.4 µM | SW-620 14.2 µM | U-251 19.5 µM | UO-31 16.3 µM

O=[N+]([O-])C(=C(Nc1cccc2cccnc12)Nc1cccc2cccnc12)C(Cl)=C(Cl)Cl
inactive: A549 > 79.8 µM | CCRF-CEM 34 µM | DU-145 58.3 µM | EKVX > 100 µM | HCC 2998 > 61.7 µM | IGROV-1 3.98 µM | LOX IMVI 50.4 µM | MDA-N 31.7 µM | OVCAR-4 34 µM | RPMI-8226 23.6 µM | SF-268 42.9 µM | SF-539 > 100 µM | SK-MEL-28 > 56.9 µM | SK-OV-3 > 100 µM | SN12C > 55.1 µM | SW-620 66.7 µM | U-251 55.1 µM | UO-31 > 100 µM

OCCCCCCCCCCCOc1ccc(C2OCC3(CO2)COC(c2ccc(OCCCCCCCCCCCO)cc2)OC3)cc1 (stereo not given)
inactive: A549 > 50 µM | DU-145 > 50 µM | EKVX > 50 µM | HCC 2998 > 50 µM | IGROV-1 > 50 µM | LOX IMVI > 50 µM | MDA-N > 50 µM | OVCAR-4 > 50 µM | RPMI-8226 > 50 µM | SF-268 > 50 µM | SF-539 > 50 µM | SK-MEL-28 > 50 µM | SK-OV-3 > 50 µM | SN12C > 50 µM | SW-620 > 50 µM | U-251 > 50 µM | UO-31 > 50 µM

O=P(O)(O)c1ccc2c(c1)OCCOCCOCCOCCO2
inactive: A549 > 100 µM | CCRF-CEM > 100 µM | DU-145 > 100 µM | EKVX > 100 µM | HCC 2998 > 100 µM | HL-60 > 100 µM | IGROV-1 > 100 µM | LOX IMVI > 100 µM | MDA-N > 100 µM | RPMI-8226 > 100 µM | SF-268 > 100 µM | SF-539 > 100 µM | SK-MEL-28 > 100 µM | SK-OV-3 > 100 µM | SN12C > 100 µM | SW-620 > 100 µM | UO-31 > 100 µM

CCCCCCC(N)(CCCCCC)C(=O)Nn1c(C)ccc1C
inactive: A549 11.4 µM | CCRF-CEM > 100 µM | DU-145 > 100 µM | EKVX 12 µM | HCC 2998 > 100 µM | HL-60 5.36 µM | IGROV-1 > 100 µM | MDA-N > 100 µM | OVCAR-4 > 100 µM | RPMI-8226 13.6 µM | SF-268 16 µM | SK-MEL-28 > 100 µM | SK-OV-3 > 100 µM | SN12C > 100 µM | SW-620 > 100 µM | U-251 > 100 µM | UO-31 25.1 µM

CC1(C)C2CCC1C(=O)C(C=O)C2 (stereo not given)
inactive: A549 > 100 µM | CCRF-CEM > 100 µM | DU-145 > 100 µM | HCC 2998 > 100 µM | HL-60 57.3 µM | IGROV-1 > 100 µM | LOX IMVI > 100 µM | MDA-N > 100 µM | RPMI-8226 > 100 µM | SF-268 > 100 µM | SF-539 74.5 µM | SK-MEL-28 > 100 µM | SK-OV-3 > 100 µM | SN12C > 100 µM | SW-620 > 100 µM | U-251 > 100 µM | UO-31 > 100 µM

O=C(Oc1ccc2c(c1)CN(Cc1ccccc1)CO2)c1ccccc1
inactive: A549 19.8 µM | CCRF-CEM 10.6 µM | DU-145 17.9 µM | EKVX 16.7 µM | HCC 2998 14.5 µM | IGROV-1 13.3 µM | LOX IMVI 17.1 µM | MDA-N 16.8 µM | OVCAR-4 15.7 µM | RPMI-8226 20.6 µM | SF-268 17.3 µM | SF-539 17.3 µM | SK-MEL-28 21.4 µM | SK-OV-3 16.6 µM | SN12C 17.1 µM | SW-620 22.8 µM | U-251 17.3 µM | UO-31 17.7 µM

COc1cc2nc3n(c2cc1OC)C(O)c1c(Cl)nc(SC)nc1S3 (stereo not given)
inactive: A549 5.08 µM | CCRF-CEM 1.17 µM | DU-145 2.39 µM | EKVX 15.4 µM | HCC 2998 4.21 µM | IGROV-1 2.6 µM | LOX IMVI 1.7 µM | MDA-N 3.36 µM | OVCAR-4 5.77 µM | RPMI-8226 2.16 µM | SF-268 3.78 µM | SF-539 2.4 µM | SK-MEL-28 6.19 µM | SK-OV-3 3.59 µM | SN12C 3.86 µM | SW-620 3.33 µM | U-251 3.37 µM | UO-31 2.99 µM

Cc1cc2c(=O)c3ccccc3oc2c(C#N)c1C
inactive: A549 > 100 µM | CCRF-CEM > 100 µM | DU-145 > 100 µM | EKVX > 100 µM | HCC 2998 > 100 µM | HL-60 > 100 µM | IGROV-1 > 100 µM | MDA-N > 100 µM | OVCAR-4 > 100 µM | RPMI-8226 > 100 µM | SF-268 > 100 µM | SK-MEL-28 > 100 µM | SK-OV-3 > 100 µM | SW-620 > 100 µM | U-251 > 100 µM | UO-31 > 100 µM

Clc1ccc(CSc2ncnc3c2ncn3C2CCCCO2)cc1 (stereo not given)
inactive: A549 25.2 µM | DU-145 31.2 µM | EKVX 13.4 µM | HCC 2998 18.6 µM | IGROV-1 30.3 µM | LOX IMVI 18.5 µM | MDA-N 20.1 µM | OVCAR-4 25.2 µM | RPMI-8226 14.3 µM | SF-268 23.3 µM | SK-MEL-28 22.8 µM | SK-OV-3 21.4 µM | SN12C 18.3 µM | SW-620 29.9 µM | U-251 19.6 µM | UO-31 1.88 µM

[N-]=[N+]=CC(=O)OC1CCc2ccccc21 (stereo not given)
inactive: CCRF-CEM > 10 µM | DU-145 12.8 µM | EKVX > 100 µM | HCC 2998 > 100 µM | HL-60 42.3 µM | IGROV-1 > 100 µM | LOX IMVI > 100 µM | MDA-N > 100 µM | OVCAR-4 > 100 µM | RPMI-8226 > 100 µM | SF-268 > 100 µM | SK-MEL-28 > 100 µM | SK-OV-3 > 100 µM | SN12C 42.5 µM | SW-620 > 100 µM | U-251 > 100 µM | UO-31 13.7 µM

CO[C@@H](C(=O)OC1C=CC2(CC1)C(=O)N(C)c1ccccc12)c1ccccc1 (stereo not given in full)
inactive: A549 > 100 µM | CCRF-CEM > 100 µM | DU-145 > 100 µM | EKVX 57 µM | HCC 2998 > 100 µM | HL-60 20.9 µM | IGROV-1 > 100 µM | LOX IMVI > 100 µM | MDA-N > 100 µM | OVCAR-4 70.3 µM | RPMI-8226 50.6 µM | SK-MEL-28 > 100 µM | SK-OV-3 > 100 µM | SN12C > 100 µM | SW-620 > 100 µM | U-251 > 100 µM | UO-31 > 100 µM
